Activity calls are given as the source filed them. The rule behind the calls is not given here.
Legend:
Cowpox virus = experiment: Antiviral activity against Cowpox virus infected in human HFF cells assessed as reduction of viral replication; type: functional, organism-based
Enterovirus = experiment: Antiviral activity against Rhinovirus infected in human HeLa Ohio1 cells assessed as reduction of viral replication; type: functional, organism-based
Yellow fever virus = experiment: Antiviral activity against Yellow fever virus infected in african green monkey Vero cells assessed as reduction of viral replication; type: functional, organism-based
West Nile virus = experiment: Antiviral activity against West Nile virus infected in african green monkey Vero cells assessed as reduction of viral replication; type: functional, organism-based
Dengue virus = experiment: Antiviral activity against Dengue virus infected in african green monkey Vero cells assessed as reduction of viral replication; type: functional, organism-based
[1] = Selectivity index, ratio of CC50 for MDCK cells to EC50 for influenza A virus H5N1; type: toxicity, cell-based; conditions: dog, read-out: Ratio CC50/EC50
[2] = Selectivity index, ratio of CC50 for MDCK cells to EC50 for influenza B virus; type: toxicity, cell-based; conditions: dog, read-out: Ratio CC50/EC50
[3] = Selectivity index, ratio of CC50 for african green monkey CV1 cells to EC50 for Measles virus; type: toxicity, cell-based, CV-1; conditions: read-out: Ratio CC50/EC50
[4] = Selectivity index, ratio of CC50 for human HFF cells to EC50 for Varicella-zoster virus; type: toxicity, cell-based; conditions: read-out: Ratio CC50/EC50
[5] = Selectivity index, ratio of CC50 for human HepG2.215 cells to EC50 for Hepatitis B virus; type: toxicity; conditions: read-out: Ratio CC50/EC50
[6] = Selectivity index, ratio of CC50 for human HFF cells to EC50 for human cytomegalovirus; type: toxicity, cell-based; conditions: read-out: Ratio CC50/EC50
Rift Valley fever virus = experiment: Antiviral activity against Rift Valley fever virus infected in african green monkey Vero 76 cells assessed as reduction of viral replication; type: functional, organism-based
[7] = Cytotoxicity against african green monkey Vero cells assessed as concentration required to cause microscopically alternation of cellular morphology; type: cell-based; conditions: chlorocebus sabaeus
[8] = Cytotoxicity against human HEL cells assessed as concentration required to cause microscopically alternation of cellular morphology; type: cell-based
[9] = Cytotoxicity against MDCK cells assessed as reduction of cell viability; type: cell-based, Canis lupus familiaris; conditions: dog
Tacaribe virus = experiment: Antiviral activity against Tacaribe virus infected in african green monkey Vero 76 cells assessed as reduction of viral replication; type: functional, organism-based; conditions: Mammarenavirus tacaribeense
[10] = Cytotoxicity against human HepG2.215 cells assessed as reduction of cell viability; type: cell-based, HepG2 2.2.15
[11] = Cytotoxicity against african green monkey CV1 cells assessed as reduction of cell viability; type: cell-based, CV-1; conditions: chlorocebus aethiops
[12] = Cytotoxicity against human HFF cells assessed as reduction of cell viability; type: cell-based
Influenza B virus = experiment: Antiviral activity against influenza B virus infected in MDCK cells assessed as reduction of viral replication; type: functional, organism-based
Influenza A virus [13] = experiment: Antiviral activity against influenza A virus H5N1 infected in MDCK cells assessed as reduction of viral replication; type: functional, organism-based
Human alphaherpesvirus 3 = experiment: Antiviral activity against Varicella-zoster virus infected in human HFF cells assessed as reduction of viral replication; type: functional, organism-based; conditions: Human alphaherpesvirus 3, HFF
[14] = tested on: Mammalian orthoreovirus 1; experiment: Antiviral activity against Reovirus 1 infected in african green monkey Vero cells assessed as reduction of viral replication; type: functional, organism-based; conditions: Mammalian orthoreovirus 1, Vero
Measles morbillivirus = experiment: Antiviral activity against Measles virus infected in african green monkey CV1 cells assessed as reduction of viral replication; type: functional, organism-based; conditions: CV-1
Human respirovirus 3 = experiment: Antiviral activity against Human parainfluenzae virus 3 infected in african green monkey Vero cells assessed as reduction of viral replication; type: functional, organism-based; conditions: Human respirovirus 3, Vero
Hepatitis B virus = experiment: Antiviral activity against Hepatitis B virus infected in human HepG 2.215 cells assessed as reduction of viral replication; type: functional, organism-based; conditions: HepG2.2.15
[15] = tested on: Vesicular stomatitis virus; experiment: Antiviral activity against Vesicular stomatitis virus infected in human HEL cells assessed as reduction of viral replication; type: functional, organism-based
Vaccinia virus = experiment: Antiviral activity against Vaccinia virus infected in human HEL cells assessed as reduction of viral replication; type: functional, organism-based; conditions: Orthopoxvirus vaccinia
Cytomegalovirus = experiment: Antiviral activity against human cytomegalovirus infected in human HFF cells assessed as reduction of viral replication; type: functional, organism-based; conditions: Human betaherpesvirus 5, HFF
Punta Toro virus = experiment: Antiviral activity against Punta Toro virus infected in african green monkey Vero cells assessed as reduction of viral replication; type: functional, organism-based
[16] = tested on: Human immunodeficiency virus 2; experiment: Antiviral activity against HIV2 infected in human CEM cells assessed as reduction of viral replication; type: functional, organism-based; conditions: CCRF-CEM
[17] = tested on: Human immunodeficiency virus 1; experiment: Antiviral activity against HIV1 infected in human CEM cells assessed as reduction of viral replication; type: functional, organism-based; conditions: CCRF-CEM
Influenza A virus [18] = experiment: Antiviral activity against influenza A H3N2 infected in MDCK cells assessed as reduction of viral replication; type: functional, organism-based
Feline coronavirus = experiment: Antiviral activity against Feline coronavirus infected in cat CRFK cells assessed as reduction of viral replication; type: functional, organism-based
Influenza A virus [19] = experiment: Antiviral activity against influenza A H1N1 infected in MDCK cells assessed as reduction of viral replication; type: functional, organism-based
Human alphaherpesvirus 2 = experiment: Antiviral activity against HSV2 infected in human HEL cells assessed as reduction of viral replication; type: functional, organism-based
Human alphaherpesvirus 1 = experiment: Antiviral activity against HSV1 infected in human HEL cells assessed as reduction of viral replication; type: functional, organism-based
Sindbis virus = experiment: Antiviral activity against Sindbis virus infected in african green monkey Vero cells assessed as reduction of viral replication; type: functional, organism-based
Coxsackievirus B4 = experiment: Antiviral activity against Human coxsackievirus B4 infected in african green monkey Vero cells assessed as reduction of viral replication; type: functional, organism-based
Human gammaherpesvirus 4 = experiment: Antiviral activity against Epstein-Barr virus infected in human HFF cells assessed as reduction of viral replication; type: functional, organism-based
[20] = tested on: Respiratory syncytial virus; experiment: Antiviral activity against Respiratory syncytial virus infected in monkey MA104 cells assessed as reduction of viral replication; type: functional, organism-based
unidentified adenovirus = experiment: Antiviral activity against Adenovirus infected in human A549 cells assessed as reduction of viral replication; type: functional, organism-based

Compound: Nc1ncc(I)c2c1ncn2[C@@H]1C[C@H](O)[C@@H](O)[C@H]1O
- Activity (Cowpox virus): inactive
- Activity (Enterovirus): inactive
- Activity (Yellow fever virus): inactive
- Activity (West Nile virus): inactive
- Activity (Dengue virus): inactive
- selectivity ratio [1]: > 6
- selectivity ratio [2]: > 111
- selectivity ratio [3]: 23
- selectivity ratio [4]: < 3.4
- selectivity ratio [5]: > 370
- selectivity ratio [6]: 182
- Activity (Rift Valley fever virus): inactive
- MCC [7]: 100 µM
- MCC [8]: > 100 µM
- CC50 [9]: > 242 µM
- Activity (Tacaribe virus): inactive
- CC50 [10]: > 300 µM
- CC50 [11]: 67 µM
- CC50 [12]: 201 µM
- EC50 (Influenza B virus): 2200 nM
- EC50 (Influenza A virus [13]): 44 µM
- EC50 (Human alphaherpesvirus 3): > 60 µM
- EC50 [14]: 4000 nM
- EC50 (Measles morbillivirus): 2900 nM
- EC50 (Human respirovirus 3): 20 µM
- EC50 (Hepatitis B virus): 808 nM
- EC50 [15]: 4 µM
- EC50 (Vaccinia virus): 4 µM
- EC50 (Cytomegalovirus): 1200 nM
- EC50 (Punta Toro virus): > 20 µM
- Activity [16]: inactive
- Activity [17]: inactive
- Activity (Influenza A virus [18]): inactive
- Activity (Feline coronavirus): inactive
- Activity (Influenza A virus [19]): inactive
- Activity (Human alphaherpesvirus 2): inactive
- Activity (Human alphaherpesvirus 1): inactive
- Activity (Sindbis virus): inactive
- Activity (Coxsackievirus B4): inactive
- Activity (Human gammaherpesvirus 4): inactive
- Activity [20]: inactive
- Activity (unidentified adenovirus): inactive

Compound: Nc1ncc(Cl)c2c1ncn2[C@@H]1C[C@H](O)[C@@H](O)[C@H]1O
- Activity (Cowpox virus): inactive
- Activity (Enterovirus): inactive
- Activity (Yellow fever virus): inactive
- Activity (West Nile virus): inactive
- Activity (Dengue virus): inactive
- selectivity ratio [1]: > 77
- selectivity ratio [2]: > 500
- selectivity ratio [3]: > 1730
- Activity (Rift Valley fever virus): inactive
- MCC [7]: > 200 µM
- MCC [8]: > 100 µM
- CC50 [9]: > 311 µM
- Activity (Tacaribe virus): inactive
- CC50 [10]: > 300 µM
- CC50 [11]: 311 µM
- CC50 [12]: > 300 µM
- EC50 (Influenza B virus): 620 nM
- EC50 (Influenza A virus [13]): 4 µM
- EC50 (Human alphaherpesvirus 3): > 300 µM
- EC50 [14]: 1600 nM
- EC50 (Measles morbillivirus): 180 nM
- EC50 (Human respirovirus 3): 1.6 µM
- EC50 (Hepatitis B virus): > 10000 nM
- EC50 [15]: 8 µM
- EC50 (Vaccinia virus): 120 µM
- EC50 (Punta Toro virus): 24 µM
- Activity [16]: inactive
- Activity [17]: inactive
- Activity (Influenza A virus [18]): inactive
- Activity (Feline coronavirus): inactive
- Activity (Influenza A virus [19]): inactive
- Activity (Human alphaherpesvirus 2): inactive
- Activity (Human alphaherpesvirus 1): inactive
- Activity (Sindbis virus): inactive
- Activity (Coxsackievirus B4): inactive
- Activity (Human gammaherpesvirus 4): inactive
- Activity [20]: inactive
- Activity (unidentified adenovirus): inactive

Reference: ChEMBL document CHEMBL2311354, “C-3 halo and 3-methyl substituted 5'-nor-3-deazaaristeromycins: synthesis and antiviral properties” (Bioorg Med Chem, 2013)
